{
  "source": "ChEMBL document CHEMBL1275491",
  "about": "“Role of plasma proteins in pharmacokinetics of micafungin, an antifungal antibiotic, in analbuminemic rats” (Antimicrob Agents Chemother, 2008)",
  "key": {"[1]": {"assay": "Volume of distribution at steady state in Sprague-Dawley rat plasma at 1 mg/kg, iv administered as single dose by high-performance liquid chromatography", "assay_type": "ADME, organism-based", "set-up": "dose 1 mg/kg, route intravenous", "settings": "read-out: Vdss"}, "[2]": {"molecular_target": "Albumin (Homo sapiens, UniProt P02768)", "sequence (P02768 whole entry)": "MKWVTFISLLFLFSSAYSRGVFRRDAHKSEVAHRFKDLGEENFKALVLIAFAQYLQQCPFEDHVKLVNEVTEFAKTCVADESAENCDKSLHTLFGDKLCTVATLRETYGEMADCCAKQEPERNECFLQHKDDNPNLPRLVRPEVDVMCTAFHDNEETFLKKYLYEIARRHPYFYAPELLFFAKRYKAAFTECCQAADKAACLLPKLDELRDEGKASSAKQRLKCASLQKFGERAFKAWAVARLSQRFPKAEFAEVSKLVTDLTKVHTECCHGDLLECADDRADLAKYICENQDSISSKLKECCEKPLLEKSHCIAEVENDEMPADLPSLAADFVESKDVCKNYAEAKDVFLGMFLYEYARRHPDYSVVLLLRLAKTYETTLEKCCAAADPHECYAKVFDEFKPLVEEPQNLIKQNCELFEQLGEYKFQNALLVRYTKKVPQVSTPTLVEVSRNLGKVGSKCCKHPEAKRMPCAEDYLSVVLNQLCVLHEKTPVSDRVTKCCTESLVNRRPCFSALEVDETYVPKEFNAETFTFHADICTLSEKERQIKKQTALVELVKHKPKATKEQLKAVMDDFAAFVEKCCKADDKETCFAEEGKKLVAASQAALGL", "assay": "Binding affinity to human serum albumin in cell-free system"}, "[3]": {"tested_on": "Rattus norvegicus", "assay": "Binding affinity to HDL in rat plasma at 1 mg/kg, iv administered as single dose", "assay_type": "ADME, organism-based", "set-up": "dose 1 mg/kg, route intravenous", "settings": "in vivo"}, "[4]": {"assay": "Volume of distribution at steady state in analbuminemic Nagase rat plasma at 1 mg/kg, iv administered as single dose by high-performance liquid chromatography", "assay_type": "ADME, organism-based", "set-up": "dose 1 mg/kg, route intravenous", "settings": "read-out: Vdss"}, "[5]": {"tested_on": "Rattus norvegicus", "assay": "Plasma protein binding in analbuminemic Nagase rat at 1 mg/kg, iv administered as single dose by high-performance liquid chromatography", "assay_type": "ADME, organism-based", "set-up": "dose 1 mg/kg, route intravenous", "settings": "in vivo"}, "[6]": {"tested_on": "Rattus norvegicus", "assay": "Plasma protein binding in Sprague-Dawley rat at 1 mg/kg, iv administered as single dose by high-performance liquid chromatography", "assay_type": "ADME, organism-based", "set-up": "dose 1 mg/kg, route intravenous", "settings": "in vivo"}, "[7]": {"tested_on": "Rattus norvegicus", "assay": "Binding affinity to gamma globulin in rat plasma at 1 mg/kg, iv administered as single dose", "assay_type": "functional"}, "[8]": {"assay": "Systemic clearance in Sprague-Dawley rat plasma at 1 mg/kg, iv administered as single dose by high-performance liquid chromatography", "assay_type": "ADME, organism-based", "set-up": "dose 1 mg/kg, route intravenous"}, "[9]": {"assay": "Systemic clearance in analbuminemic Nagase rat plasma at 1 mg/kg, iv administered as single dose by high-performance liquid chromatography", "assay_type": "ADME, organism-based", "set-up": "dose 1 mg/kg, route intravenous"}},
  "note": "Starred links: 1 amine or outer side, 2 acyl side, 3 side chain; linkers in the order of their positions; H or OH if unused. Positions of bridges follow the written chain, without caps; N, C: chain ends. Non-standard residues stand in square brackets, D forms with d. Residues, ends and D or L forms follow the SMILES beside them. *: point of attachment. hTyr(3S-OH,4S-OH,3'-OSO3H) = N[C@H](C(=O)O)[C@H](O)[C@@H](O)c1ccc(O)c(OS(=O)(=O)O)c1; Orn(4R-OH,5R-OH) = O=C([C@H](C[C@@H](O)[C@@H](O)N[*:3])N[*:1])[*:2]; Pro(3S-OH,4S-Me) = C[C@H]1CN[C@H](C(=O)O)[C@H]1O; X1 = CCCCCOc1ccc(-c2cc(-c3ccc(C(=O)*)cc3)no2)cc1; Gln(3R-OH) = NC(=O)C[C@@H](O)[C@H](N)C(=O)O; Hyp = O=C(O)[C@@H]1C[C@@H](O)CN1",
  "data": [
    {"smiles": "CCCCCOc1ccc(-c2cc(-c3ccc(C(=O)N[C@H]4C[C@@H](O)[C@@H](O)NC(=O)[C@@H]5[C@@H](O)[C@@H](C)CN5C(=O)[C@H]([C@H](O)CC(N)=O)NC(=O)[C@H]([C@H](O)[C@@H](O)c5ccc(O)c(OS(=O)(=O)O)c5)NC(=O)[C@@H]5C[C@@H](O)CN5C(=O)[C@H]([C@@H](C)O)NC4=O)cc3)no2)cc1", "note": "[MICAFUNGIN] (X1-[Orn(4R-OH,5R-OH)]T[Hyp][hTyr(3S-OH,4S-OH,3'-OSO3H)][Gln(3R-OH)][Pro(3S-OH,4S-Me)]; lactam 1-C)", "values": [
      {"measurement": "Vd", "setting": "[1]", "result": 0.54, "unit": "L/kg"},
      {"measurement": "Activity", "setting": "[2]", "result": 99.7, "unit": "%"},
      {"measurement": "Activity", "setting": "[3]", "result": 97.4, "unit": "%"},
      {"measurement": "Vd", "setting": "[4]", "result": 0.52, "unit": "L/kg"},
      {"measurement": "Activity", "setting": "[5]", "result": 99.8, "unit": "%"},
      {"measurement": "Activity", "setting": "[6]", "result": 99.7, "unit": "%"},
      {"measurement": "Activity", "setting": "[7]", "result": 35.1, "unit": "%"},
      {"measurement": "clearance", "setting": "[8]", "result": 1.15, "unit": "mL/min/kg"},
      {"measurement": "clearance", "setting": "[9]", "result": 1.2, "unit": "mL/min/kg"}
    ]}
  ]
}
